According to PMC6010526, “In Silico Approaches Applied to the Study of Peptide Analogs of Ile-Pro-Ile in Relation to Their Dipeptidyl Peptidase IV Inhibitory Properties” (Frontiers in Endocrinology, 2018):
Where two headings read alike, the source gives them in different places. Residues, ends and D or L forms follow the SMILES beside them.

Assays:
porcine DPP-IV [1] = target: T1, porcine DPP-IV (Sus scrofa, UniProt P22411); experiment: DPP-IV inhibition assay with Gly-Pro-pNA substrate; format: biochemical; design: purchased Sigma Aldrich (Dublin, Ireland); settings: for IC50: porcine DPP-IV, Gly-Pro-pNA 0.200 mM, 37°C, n = 3, read-out: Experimental DPP-IV IC50
Description: Peptides were dispersed in HPLC grade water at 50 and 500 µM (final concentration). The DPP-IV inhibition assay was carried out in triplicate as outlined by Nongonierma and FitzGerald ([18]). Briefly, samples (25 μL) were mixed with Gly-Pro-pNA (final concentration 0.200 mM) and DPP-IV (final concentration 0.0025 U mL^−1) in a 96-well microplate (Sarstedt, Dublin, Ireland). The microplate was incubated at 37°C for 60 min in a microplate reader (Biotek Synergy HT, Winooski, VT, USA) and absorbance was monitored at 405 nm.
Dose–response curves were determined for peptides displaying a percentage of inhibition > 50% at 500 µM. Peptides were diluted in HPLC water at concentrations ranging from 0.37 to 500 µM (final concentration). The DPP-IV IC50 values were determined by plotting the percentage inhibition as a function of the test compound concentration. Each analysis was carried out in triplicate (n = 3).

porcine DPP-IV [2] = target: T1, porcine DPP-IV; experiment: Stability of peptides to hydrolysis by DPP-IV (LC-MS/MS); settings: for Hydrolysis by DPP-IV (stability), in words: 30 min incubation with DPP-IV; for Peptide hydrolyzed by DPP-IV: peptide at 1/4 of IC50, 30 min at 37°C, Tris-HCl buffer pH 8.0
Description: Stability of the peptides to hydrolysis by DPP-IV was evaluated by liquid chromatography tandem mass spectrometry (LC-MS/MS) using the samples generated during the Lineweaver and Burk analysis containing DPP-IV inhibitory peptides at their IC50 values divided by 4 as previously described ([24]). Following the 30 min reaction, DPP-IV was heat inactivated by immersing samples in a water bath set at 90°C for 20 min. Test samples were subsequently diluted 40 times in mobile phase A (0.1% FA in MS water). Intact peptides were analyzed at the same concentration as the test samples. The peptide composition of the samples was determined as described previously ([25]). Briefly, an ultra-high performance liquid chromatography (UHPLC) UltiMate 3000 (Dionex, Camberley, Surrey, UK) fitted with a security guard UHPLC C18 PEPTIDE (2.1 mm, Phenomenex, Cheshire, UK) and an Aeris Peptide XB-C18 column (150 mm × 2.1 mm, 1.7 µm, Phenomenex) was used for peptide separation at 25°C. A sample volume of 2 µL was injected with a solvent delay of 4 min. The UHPLC was coupled to a quadrupole time-of-flight mass spectrometer (Q-TOF, Impact HD™, Bruker Daltonics GmbH, Bremen, Germany) using a 50–600 m/z acquisition range. The MS was fitted with an electrospray ionization source used in positive ion mode. Data acquisition was performed with Hystar software (Bruker Daltonics). Data analysis was performed with Compass Data Analysis 4.2 (Bruker Daltonics).

DPP-IV [3] = tested on: DPP-IV; design: method as in PMID 1671823; settings: after 36 min incubation; ref [47]; cited from earlier work
DPP-IV [4] = settings: competitive inhibitory peptides used in QSAR model, cited from earlier work
[5] = cited from earlier work
[6] = target: human dipeptidyl peptidase IV; design: method as in PMID 24512990; settings: most potent peptide of Trp-Arg-Xaa library; ref [14]; read-out: DPP-IV IC50; cited from earlier work
DPP-IV [7] = settings: cited from earlier work

T1 sequence (P22411 whole entry): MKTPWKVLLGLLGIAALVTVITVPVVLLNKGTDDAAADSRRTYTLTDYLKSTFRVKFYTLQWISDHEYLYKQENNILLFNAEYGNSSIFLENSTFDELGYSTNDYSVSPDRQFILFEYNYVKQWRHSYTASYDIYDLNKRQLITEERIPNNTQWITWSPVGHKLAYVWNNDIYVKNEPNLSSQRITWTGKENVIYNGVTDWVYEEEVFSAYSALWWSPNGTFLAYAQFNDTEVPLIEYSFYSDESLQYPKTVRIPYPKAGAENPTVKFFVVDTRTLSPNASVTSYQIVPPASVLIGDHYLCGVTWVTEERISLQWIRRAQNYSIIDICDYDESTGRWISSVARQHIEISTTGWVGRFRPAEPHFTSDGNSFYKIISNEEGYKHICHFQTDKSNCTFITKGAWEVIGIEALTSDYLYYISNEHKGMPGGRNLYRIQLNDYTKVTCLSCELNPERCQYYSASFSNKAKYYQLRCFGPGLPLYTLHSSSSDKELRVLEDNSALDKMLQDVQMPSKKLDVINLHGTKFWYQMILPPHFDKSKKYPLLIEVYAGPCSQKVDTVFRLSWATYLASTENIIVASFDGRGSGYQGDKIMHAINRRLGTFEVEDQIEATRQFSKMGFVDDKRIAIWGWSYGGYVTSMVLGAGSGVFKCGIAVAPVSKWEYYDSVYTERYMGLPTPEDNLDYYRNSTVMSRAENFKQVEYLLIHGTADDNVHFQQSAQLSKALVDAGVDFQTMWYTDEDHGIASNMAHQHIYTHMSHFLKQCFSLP

Row | inhibition at 500 µM (porcine DPP-IV [1]; peptide at 500 µM) [%] | IC50 (porcine DPP-IV [1]) [µM] | Hydrolysis by DPP-IV (stability), in words (porcine DPP-IV [2]) | Peptide hydrolyzed by DPP-IV (porcine DPP-IV [2]) | Compound | other results
1 | > 65 | 44.3 ± 3.2 | not hydrolyzed by DPP-IV | NO | C[C@H](N)C(=O)N1CCC[C@H]1C(=O)N[C@@H](C)C(=O)O [APA, Ala-Pro-Ala] (H-Ala-Pro-Ala-OH; N-terminus and C-terminus assumed) | 
2 | > 65 | 65.8 ± 5.5 | not hydrolyzed by DPP-IV | NO | C[C@H](N)C(=O)N1CCC[C@H]1C(=O)N[C@@H](Cc1ccccc1)C(=O)O [APF, Ala-Pro-Phe] (H-Ala-Pro-Phe-OH; N-terminus and C-terminus assumed) | 
3 | > 65 | 120 ± 3.5 | not hydrolyzed by DPP-IV | NO | C[C@H](N)C(=O)N1CCC[C@H]1C(=O)N[C@@H](CCCNC(=N)N)C(=O)O [APR, Ala-Pro-Arg] (H-Ala-Pro-Arg-OH; N-terminus and C-terminus assumed) | 
4 | 62.9 ± 10.1 | 247 ± 32.7 | partly hydrolyzed by DPP-IV | YES | N[C@@H](Cc1ccccc1)C(=O)N1CCC[C@H]1C(=O)N[C@@H](Cc1ccccc1)C(=O)O [FPF, Phe-Pro-Phe] (H-Phe-Pro-Phe-OH; N-terminus and C-terminus assumed) | 
5 |  | 54.9 ± 2.9 | partly hydrolyzed by DPP-IV | YES | N[C@@H](Cc1ccccc1)C(=O)N1CCC[C@H]1C(=O)N[C@@H](Cc1c[nH]c2ccccc12)C(=O)O [FPW, Phe-Pro-Trp] (H-Phe-Pro-Trp-OH; N-terminus and C-terminus assumed) | 
6 | 9.6 ± 1.9 |  |  |  | CC[C@H](C)[C@H](N)C(=O)N[C@@H](C)C(=O)N[C@H](C(=O)O)[C@@H](C)CC [IAI, Ile-Ala-Ile] (H-Ile-Ala-Ile-OH; N-terminus and C-terminus assumed) | % DPP-IV inhibition (porcine DPP-IV [1]; peptide at 500 µM, 500 µM): < 10%
7 | > 65 | 28.3 ± 3.4 | not hydrolyzed by DPP-IV | NO | CC[C@H](C)[C@H](N)C(=O)N1CCC[C@H]1C(=O)N[C@@H](C)C(=O)O [IPA, Ile-Pro-Ala] (H-Ile-Pro-Ala-OH; N-terminus and C-terminus assumed) | 
8 |  | 47.3 ± 12.3 | partly hydrolyzed by DPP-IV | YES | CC[C@H](C)[C@H](N)C(=O)N1CCC[C@H]1C(=O)N[C@@H](Cc1ccccc1)C(=O)O [IPF, Ile-Pro-Phe] (H-Ile-Pro-Phe-OH; N-terminus and C-terminus assumed) | 
9 | > 65 |  |  |  | CC[C@H](C)[C@H](N)C(=O)N1CCC[C@H]1C(=O)N[C@H](C(=O)O)[C@@H](C)CC [IPI, Ile-Pro-Ile] | initial amount cleaved by DPP-IV (DPP-IV [3]): 37%
10 |  | 175 ± 5.5 | partly hydrolyzed by DPP-IV | YES | CC[C@H](C)[C@H](N)C(=O)N1CCC[C@H]1C(=O)N[C@@H](Cc1c[nH]c2ccccc12)C(=O)O [IPW, Ile-Pro-Trp] (H-Ile-Pro-Trp-OH; N-terminus and C-terminus assumed) | 
11 | < 25 |  |  |  | CC[C@H](C)[C@H](N)C(=O)N[C@@H](CCCNC(=N)N)C(=O)N[C@@H](Cc1ccccc1)C(=O)O [IRF, Ile-Arg-Phe] (H-Ile-Arg-Phe-OH; N-terminus and C-terminus assumed) | 
12 | < 25 |  |  |  | CC[C@H](C)[C@H](N)C(=O)N[C@@H](CCCNC(=N)N)C(=O)N[C@@H](CCCCN)C(=O)O [IRK, Ile-Arg-Lys] (H-Ile-Arg-Lys-OH; N-terminus and C-terminus assumed) | 
13 | > 65 | 74.5 ± 7 | not hydrolyzed by DPP-IV | NO | C[C@H](NC(=O)[C@@H]1CCCN1C(=O)[C@@H](N)CCCCN)C(=O)O [KPA, Lys-Pro-Ala] (H-Lys-Pro-Ala-OH; N-terminus and C-terminus assumed) | 
14 | < 25 |  |  |  | N=C(N)NCCC[C@H](NC(=O)[C@H](CCCCN)NC(=O)[C@@H](N)CCCNC(=N)N)C(=O)O [RKR, Arg-Lys-Arg] (H-Arg-Lys-Arg-OH; N-terminus and C-terminus assumed) | 
15 |  | 160 ± 12.8 | partly hydrolyzed by DPP-IV | YES | N[C@@H](Cc1c[nH]c2ccccc12)C(=O)N1CCC[C@H]1C(=O)N[C@@H](Cc1ccccc1)C(=O)O [WPF, Trp-Pro-Phe] (H-Trp-Pro-Phe-OH; N-terminus and C-terminus assumed) | 
16 |  | 120 ± 13.1 | partly hydrolyzed by DPP-IV | YES | N[C@@H](Cc1c[nH]c2ccccc12)C(=O)N1CCC[C@H]1C(=O)N[C@@H](Cc1c[nH]c2ccccc12)C(=O)O [WPW, Trp-Pro-Trp] (H-Trp-Pro-Trp-OH; N-terminus and C-terminus assumed) | 

Second part, the compound before the results:

Row | Compound | inhibition at 500 µM (porcine DPP-IV [1]; peptide at 500 µM) [%] | IC50 (porcine DPP-IV [1]) [µM] | Hydrolysis by DPP-IV (stability), in words (porcine DPP-IV [2]) | Peptide hydrolyzed by DPP-IV (porcine DPP-IV [2]) | other results
17 | Glu-Lys [EK] |  |  |  |  | IC50 (DPP-IV [4]; ref [18]): 3220 µM
18 | IPIQY |  |  |  |  | IC50 (DPP-IV [4]; ref [21]): 35.2 µM
19 | Ile-Pro-Pro |  |  |  |  | Identification in human sera ([5]; following ingestion of a milk beverage enriched in lactotripeptides, ref [39]): identified in human sera
20 | LLQLEAIR |  |  |  |  | IC50 (DPP-IV [4]; ref [24]): 178 µM
21 | LPLPL |  |  |  |  | IC50 (DPP-IV [4]; ref [21]): 325 µM
22 | LPQNIPPLT |  |  |  |  | IC50 (DPP-IV [4]; ref [17]): 205 µM
23 | LPVP |  |  |  |  | IC50 (DPP-IV [4]; ref [24]): 87 µM
24 | LPVPQ |  |  |  |  | IC50 (DPP-IV [4]; ref [17]): 43.7 µM
25 | LPYPY |  |  |  |  | IC50 (DPP-IV [4]; ref [21]): 108 µM
26 | MPVQA |  |  |  |  | IC50 (DPP-IV [4]; ref [24]): 93.3 µM
27 | Trp-Arg-Glu |  |  |  |  | IC50 [6]: 350 µM
28 | VPGEIVE |  |  |  |  | IC50 (DPP-IV [4]; ref [17]): 224 µM
29 | Val-Pro-Leu [VPL] |  |  |  |  | times more potent than other food protein-derived peptides (DPP-IV [7]; DPP-IV inhibition, ref [5]): > 2 times; Mode of inhibition (DPP-IV [7]; Table S1, ref (2,3) of supplement): competitive; IC50 (DPP-IV [7]; ref [8]): 15.8 µM
30 | Val-Pro-Pro |  |  |  |  | Identification in human sera ([5]; in vivo): identified in human sera
